Here are results for twelve compounds from patent US7205326B2, “Aniline derivatives, their manufacture and use as pharmaceutical agents” (Hoffmann-La Roche Inc., priority 2003, dated 2007).

The subject of series [1] is HCT116 cells. In words: HCT116 cell proliferation MTT assay. The class given is cell-based. As to conditions: HCT-116; HCT116 human colon carcinoma cells, MTT assay after 5 days (120 h) incubation, compound 3 uM to 0.15 nM. Here is the method: HCT116 cells (human colon carcinoma cell line) were cultivated in RPMI 1640, 2.5% FCS, 2 mM Glutamine, 100 u/ml Penicillin, 100 ug/ml Streptomycin. For the assay the cells were seeded in 384 well plates, 1000 cells per well, in the same medium
The next day compounds (dissolved 10 mM in DMSO) were added in various concentrations ranging from 3 uM to 0.15 nM. After 5 days the MTT assay was done mainly according to the instructions of the manufacturer (Cell proliferation kit I, MTT, from Roche Molecular Biochemicals). In brief: MTT labeling reagent was added to a final concentration of 0.5 mg/ml, added and incubated for 4 hrs at 37° C., 5% CO2. During this incubation time purple formazan crystals are formed. After addition of the solubilization solution (20% SDS in 0.02 M HCl) the plates were incubated overnight at 37° C., 5% CO2. After careful mixing plates were measured in Victor 2 (scanning multiwell spectrophotometer, Wallac) at 550 nm.
A decrease in number of living cells results in a decrease in the total metabolic activity in the sample. The decrease directly correlates to the amount of purple color resulting from the solubilization of the purple formazan crystals.
Materials: • HCT116 1000 cells in 60 ul per well of 384 well plate (Greiner) • Medium: RPMI 1640, 2.5% FCS, glutamine, pen/strep. • Incubate 1 day at 37° C.
Induction: • Dilution of compound in DMSO: 3 ul 10 mM+27 ul DMSO, dilute 1:3 • Add 2 ul of compound dilution row to 95 ul of medium • Add 10 ul of compound dilution to 60 ul medium in test plate results in 0.3% DMSO per well • Incubate 120 h (5 days) at 37° C., 5% CO2
Analysis: • Add 7 ul MTT ([…]), incubate 4 h at 37° C. • Add 30 ul lysis buffer (20% SDS, 0.04N HCl) per well • Incubate overnight at 37° C.
Measurement: • Victor 2 (scanning multiwell spectrophotometer, Wallac), at 550 nm • Determination of IC50 was done using XL-fit.

Where only a bound is given, the exact number is not on record here.

As a reminder, the IC50 is the concentration at which inhibition is half-maximal. Read a low IC50 as greater potency. The melting point is the temperature of the solid-liquid transition. `Clc1ccc(C=Cc2nc(CNc3ccc(CCCCn4ccnn4)cc3)co2)cc1` [Example 5, {2-[2-(4-Chloro-phenyl)-vinyl]-oxazol-4-ylmethyl}-[4-(4-[1,2,3]triazol-1-yl-butyl)-phenyl]-amine]: the melting point lay in the range of 120 to 122 °C. Moreover, in series [1], the IC50 was under 20 nM.
Compound `C(=Cc1nc(CNc2ccc(CCCCn3ccnn3)cc2)co1)c1ccc2c(c1)OCO2` [Example 6, [2-(2-Benzo[1,3]dioxol-5-yl-vinyl)-oxazol-4-ylmethyl]-[4-(4-[1,2,3]triazol-1-yl-butyl)-phenyl]-amine] returned a melting point of 130 to 131 °C. In series [1], this compound had an IC50 of over 40 nM.
Take `FC1(F)Oc2ccc(C=Cc3nc(CNc4ccc(CCCCn5ccnn5)cc4)co3)cc2O1` [Example 7, {2-[2-(2,2-Difluoro-benzo[1,3]dioxol-5-yl)-vinyl]-oxazol-4-ylmethyl}-[4-(4-[1,2,3]triazol-1-yl-butyl)-phenyl]-amine]: the melting point fell in the range of 102 to 104 °C. This compound yielded an IC50 in series [1] of over 40 nM.
The compound `FC(F)(F)Sc1ccc(C=Cc2nc(CNc3ccc(CCCCn4ccnn4)cc3)co2)cc1` [Example 8, [4-(4-[1,2,3]Triazol-1-yl-butyl)-phenyl]-{2-[2-(4-trifluoromethylsulfanyl-phenyl)-vinyl]-oxazol-4-ylmethyl}-amine] returned a melting point of 76 to 78 °C. In series [1], the IC50 was under 20 nM.
Turning to `FC(F)(F)c1ccc(C=Cc2nc(CNc3ccc(OCCCn4ccnn4)cc3)co2)cc1` [Example 9, [4-(3-[1,2,3]Triazol-1-yl-propoxy)-phenyl]-{2-[2-(4-trifluoromethyl-phenyl)-vinyl]-oxazol-4-ylmethyl}-amine], the melting point lay in the range of 134 to 136 °C. Moreover, the IC50 in series [1] is under 20 nM.
For the compound `CN(Cc1coc(C=Cc2ccc(C(F)(F)F)cc2)n1)c1ccc(OCCCn2ccnn2)cc1` [Example 10, Methyl-[4-(3-[1,2,3]triazol-1-yl-propoxy)-phenyl]-{2-[2-(4-trifluoromethyl-phenyl)-vinyl]-oxazol-4-ylmethyl}-amine], the melting point was in the range of 137 to 138 °C. In series [1], this compound had an IC50 of over 40 nM.
On the same counts, the results for `O=C(Nc1ccc(CCCCn2ccnn2)cc1)c1coc(C=Cc2ccc(C(F)(F)F)cc2)n1` [Example 11, 2-[2-(4-Trifluoromethyl-phenyl)-vinyl]-oxazole-4-carboxylic acid [4-(4-[1,2,3]triazol-1-yl-butyl)-phenyl]-amide] are 183 to 185 °C and 20 to 40 nM.
On to `CN(C(=O)c1coc(C=Cc2ccc(C(F)(F)F)cc2)n1)c1ccc(CCCCn2ccnn2)cc1` [Example 12, 2-[2-(4-Trifluoromethyl-phenyl)-vinyl]-oxazole-4-carboxylic acid methyl-[4-(4-[1,2,3]triazol-1-yl-butyl)-phenyl]-amide], for which the melting point lay in the range of 127 to 129 °C. For the same compound, the IC50 in series [1] fell in the range of 20 to 40 nM.
On the same counts, the results for `Clc1ccc(C=Cc2nc(CNc3ccc(CCCCn4ccnn4)cc3)co2)cc1Cl` [Example 25, {2-[2-(3,4-Dichloro-phenyl)-vinyl]-oxazol-4-ylmethyl}-[4-(4-[1,2,3]triazol-1-yl-butyl)-phenyl]-amine] are 76.8 to 78.8 °C and under 20 nM.
For `Fc1ccc(C=Cc2nc(CNc3ccc(CCCCn4ccnn4)cc3)co2)c(C(F)(F)F)c1` [Example 27, {2-[2-(4-Fluoro-2-trifluoromethyl-phenyl)-vinyl]-oxazol-4-ylmethyl}-[4-(4-[1,2,3]triazol-1-yl-butyl)-phenyl]-amine], the melting point fell in the range of 109 to 111 °C. The compound further displayed an IC50 in series [1] of over 40 nM.
Compound `FC(F)(F)Oc1cccc(C=Cc2nc(CNc3ccc(CCCCn4ccnn4)cc3)co2)c1` [Example 28, [4-(4-[1,2,3]Triazol-1-yl-butyl)-phenyl]-{2-[2-(3-trifluoromethoxy-phenyl)-vinyl]-oxazol-4-ylmethyl}-amine] came in with a melting point of 91 to 93 °C. In series [1], this compound showed an IC50 of over 40 nM.
Taken in the same sequence, the figures for `[O-][S+](c1ccc(/C=C/c2nc(CNc3ccc(CCCCn4ccnn4)cc3)co2)cc1)C(F)(F)F` (stereo not drawn) [Example 33, [4-(4-[1,2,3]Triazol-1-yl-butyl)phenyl]-{2-[(E)-2-(-4-trifluoromethanesulfinyl-phenyl)-vinyl]-oxazol-4-ylmethyl}-amine] were 121 to 124 °C and over 40 nM.
